Measured values as given in patent US20240309003A1, “HETEROCYCLIC COMPOUNDS AS TRIGGERING RECEPTOR EXPRESSED ON MYELOID CELLS 2 AGONISTS AND METHODS OF USE” (Vigil Neuroscience, Inc., priority 2021, published 2024).

The compounds below were run against T1, human TREM2 (Homo sapiens, UniProt Q9NZC2) (assay: TREM2 agonist potency by cellular phosphorylation of Syk (AlphaLisa) in HEK293T-hTREM2 cells). Details: HEK293 cells expressing human TREM2 and DAP12, Table D.
T1 construct: expressed in transfected cells; host or cells: HEK293T
Assay type: cell-based
Experimental: In Vitro Measurement of Triggering Receptor Expressed on Myeloid Cells 2 Activity Using Cellular Phosphorylation of Spleen Tyrosine Kinase (“Syk”) Assays
Measurement of TREM2 agonist potency was done using a HEK cell line expressing human TREM2 and DAP12 (HEK293T-hTREM2 cells). Binding of small molecules to, and activation of, TREM2 increases the phosphorylation of Syk. The resultant levels of Syk phosphorylation are measured using a commercial AlphaLisa reagent kit. To perform the assay, HEK-hTREM2 cells were plated at 14,000 cells per well in a 384 well plate, in 25 μL of complete growth media and incubated at 37° C., 5% CO2 for 20-24 hours.
Prior to the assay, test compounds were diluted in the 384 well plates in assay buffer and allowed to equilibrate for 30 minutes. Growth media was removed from cell plates by inversion on blotting paper, and 25 μL of test articles in assay buffer was added to cells. Cells were incubated for 45 minutes at room temperature. After 45 minutes, assay buffer was removed and 10 μL of lysis buffer was added. Plates were shaken for 20 minutes at 350 RPM at room temperature. After complete lysis, AlphaLisa reagents were added to the lysate, and fluourescence intensity was measured using a Perkin Elmer Envision plate reader. Intensities were used to generate a standard curve, and % activation was calculated. Curve fitting was performed using Prism v9 software, log(agonist) vs response-variable slope (four parameters), and EC50s were calculated from the curve fit.
This assay may be used to test any of the compounds described herein to assess and characterize a compound's ability to act as an agonist of TREM2.

T1 sequence (Q9NZC2 19-230): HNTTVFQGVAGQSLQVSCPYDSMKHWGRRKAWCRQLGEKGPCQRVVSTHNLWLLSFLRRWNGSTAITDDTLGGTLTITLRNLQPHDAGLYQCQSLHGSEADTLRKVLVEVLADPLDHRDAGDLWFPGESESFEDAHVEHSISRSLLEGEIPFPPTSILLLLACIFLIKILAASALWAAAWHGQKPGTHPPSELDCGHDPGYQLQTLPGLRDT
T1 sequence (O43914 22-113 partner): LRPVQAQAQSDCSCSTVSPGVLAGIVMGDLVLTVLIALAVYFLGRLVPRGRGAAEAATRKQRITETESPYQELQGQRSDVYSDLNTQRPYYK

EC50 [nM]	SMILES
50 to 500	Cc1nc2nc(N3C[C@@H](C)O[C@@H](c4cnn(C5CC5)c4)C3)nc(-c3ccnn3C)c2nc1C [Example 241, (2S,6R)-2-(1-cyclopropyl-1H-pyrazol-4-yl)-4-(6,7-dimethyl-4-(1-methyl-1H-pyrazol-5-yl)pteridin-2-yl)-6-methylmorpholine]
500 to 3000	COc1cccc([C@@H]2C[C@H](c3nc(C45CC(C(F)(F)F)(C4)C5)c4nc(C)c(C)nc4n3)CCO2)n1 [Example 145, 2-[ (2S,4R)-2-(6-methoxy-2-pyridyl)tetrahydropyran-4-yl] - 6,7-dimethyl-4-[3-(trifluoromethyl)-1-bicyclo[1.1.1]pentanyl]pteridine]
500 to 3000	Cc1nc2nc(C3CCOC(c4nc(C5CC5)n[nH]4)C3)nc(-c3ccc(F)cc3F)c2nc1C (stereo not drawn) [Example 169]
< 50	Cc1nc2nc([C@@H]3CCO[C@H](c4ccc(=O)n(C)c4)C3)nc(-c3ccc(F)cc3F)c2nc1C [Example 200]
500 to 3000	Cc1cc([C@H]2C[C@@H](c3cc(-c4ccc(Cl)c(F)c4F)c4cc(C)c(C)nc4n3)CCO2)ccn1 [Example 186, 5-(4-chloro-2,3-difluorophenyl)-2,3-dimethyl-7-((2R,4S)-2-(2-methylpyridin-4-yl)tetrahydro-2H-pyran-4-yl)-1,8-naphthyridine]
< 50	Cc1cnc2c(-c3ccc(Cl)cc3F)nc(N3C[C@@H](C)O[C@@H](c4cnn(C5CC5)c4)C3)nc2n1 (racemic) [Example 70, 4-(4-(4-chloro-2-fluorophenyl)-7-methylpteridin-2-yl)-2-(1-cyclopropyl-1H-pyrazol-4-yl)-6-methylmorpholine]
50 to 500	Fc1ccc(-c2nc([C@H]3CCO[C@@H](c4cnn(C5CC5)c4)C3)cc3nc4c(nc23)COC4)c(F)c1 [Example 238, 7-((2R,4S)-2-(1-cyclopropyl-1H-pyrazol-4-yl)tetrahydro-2H-pyran-4-yl)-5-(2,4-difluorophenyl)-1,3-dihydrofuro[3,4-b]pyrido[3,4-e]pyrazine]
3000 to 100000	[2H]C1([2H])C[C@@H](c2nc(-c3ccc(F)cc3F)c3nc(C)c(C)nc3n2)C[C@@]([2H])(c2cnn(C3CC3)c2)O1 (single isomer, unassigned) [Example 191]
50 to 500	Cc1nc2nc([C@@H]3CCO[C@H](c4cnn(C5CC5)n4)C3)nc(-c3ccc(F)cc3F)c2nc1C [Example 154, 2-((2S,4R)-2-(2-cyclopropyl-2H-1,2,3-triazol-4-yl)tetrahydro-2H-pyran-4-yl)-4-(2,4-difluorophenyl)-6,7-dimethylpteridine]
500 to 3000	COc1ncccc1[C@@H]1C[C@H](c2nc(C34CC(C(F)(F)F)(C3)C4)c3nc(C)c(C)nc3n2)CCO1 [Example 143, 2-((2S,4R)-2-(2-methoxypyridin-3-yl)tetrahydro-2H-pyran-4-yl)-6,7-dimethyl-4-(3-(trifluoromethyl)bicyclo[1.1.1]pentan-1-yl)pteridine]

Same assay, conditions: HEK293 cells expressing human TREM2 and DAP12, Table D-2

EC50 [nM]	SMILES
50 to 500	Cc1nc2nc(N3C[C@@H](CO)O[C@@H](c4cnn(C5CC5)c4)C3)nc(-c3ccc(F)cc3F)c2nc1C [Example I-1333, [(2S,6S)-6-(1-cyclopropylpyrazol-4-yl)-4-[4-(2,4-difluorophenyl)-6,7-dimethyl-pteridin-2-yl]morpholin-2-yl]methanol]
500 to 3000	Cc1nc2nc([C@H]3CCO[C@@H](c4cnn(C5CC5)c4)C3)nc(-c3ccc(C(C)C)cc3F)c2nc1C [Example I-1192]
< 50	Cc1nc2nc(C3CCO[C@@H](c4cnn(C5CC5)c4)C3)nc(C3CC4(C3)CC(F)(F)C4)c2nc1C (stereo partly drawn) [Example I-1582, 2-[(2R)-2-(1-cyclopropylpyrazol-4-yl)tetrahydropyran-4-yl]-4-(2,2-difluorospiro[3.3]heptan-6-yl)-6,7-dimethyl-pteridine]
< 50	Cc1nc2nc(N3C[C@@H](C)O[C@@H](c4cnn(C5CC5)c4)C3)nc(-c3ccc(F)cc3F)c2nc1C(F)F [Example I-1609, (2S,6R)-2-(1-cyclopropylpyrazol-4-yl)-4-[6-(difluoromethyl)-4-(2,4-difluorophenyl)-7-methyl-pteridin-2-yl]-6-methyl-morpholine]
50 to 500	Cc1nc2nc(N3CCOC(c4cnn5c4CCC5)C3)nc(-c3ccc(F)cc3F)c2nc1C (stereo in doubt) [Example I-1532, (2S)-4-[4-(2,4-difluorophenyl)-6,7-dimethyl-pteridin-2-yl]-2-(5,6-dihydro-4H-pyrrolo[1,2-b]pyrazol-3-yl)morpholine]
50 to 500	Cc1nc2cc([C@H]3CCO[C@@H](c4cnn(C5CC5)c4)C3)nc(-c3ccc(C(F)(F)F)cc3F)c2nc1C(F)(F)F [Example I-1562]
< 50	Cc1nc2nc([C@H]3CCO[C@@H](c4cnn(C5CC5)c4)C3)nc(-c3ccc(C(F)(F)F)c(F)c3F)c2nc1C (stereo in doubt) [Example I-1588, 4-[2,3-difluoro-4-(trifluoromethyl)phenyl]-6,7-dimethyl-2-[(2R,4S)-2-(1-cyclopropylpyrazol-4-yl)tetrahydropyran-4-yl]pteridine]
< 50	Cc1nc2nc([C@H]3CCO[C@@H](c4cnn(C5CC5)c4)C3)nc(-c3ccc(Cl)cc3F)c2nc1C(F)F [Example I-1099, 4-(4-chloro-2-fluoro-phenyl)-2-[(2R,4S)-2-(1-cyclopropylpyrazol-4-yl)tetrahydropyran-4-yl]-6-(difluoromethyl)-7-methyl-pteridine]
< 50	Cc1nc2nc([C@H]3CCO[C@@H](c4cnn(C5CC5)c4)C3)nc(-c3ccc(C(F)F)cc3F)c2nc1C [Example I-1216, 2-[(2R,4S)-2-(1-cyclopropylpyrazol-4-yl)tetrahydropyran-4-yl]-4-[4-(difluoromethyl)-2-fluoro-phenyl]-6,7-dimethyl-pteridine]
3000 to 100000	Cc1nc2nc(N3C[C@H](CO)O[C@H](c4cnn(C5CC5)c4)C3)nc(-c3ccc(F)cc3F)c2nc1C [Example I-1334, [(2R,6R)-6-(1-cyclopropylpyrazol-4-yl)-4-[4-(2,4-difluorophenyl)-6,7-dimethyl-pteridin-2-yl]morpholin-2-yl]methanol]
50 to 500	CCc1nc2c(-c3ccc(F)cc3F)nc([C@H]3CCO[C@@H](c4cnn(C5CC5)c4)C3)cc2nc1C [Example I-1557, 7-((2R,4S)-2-(1-cyclopropyl-1H-pyrazol-4-yl)tetrahydro-2H-pyran-4-yl)-5-(2,4-difluorophenyl)-3-ethyl-2-methylpyrido[3,4-b]pyrazine]
< 50	Cc1nc2nc(N3C[C@@H](C)O[C@@H](c4cnn(CCO)c4)C3)nc(-c3ccc(Cl)cc3F)c2nc1C [Example I-1686, 2-(4-((2S,6R)-4-(4-(4-chloro-2-fluorophenyl)-6,7-dimethylpteridin-2-yl)-6-methylmorpholin-2-yl)-1H-pyrazol-1-yl)ethan-1-ol]
50 to 500	Cc1nc2nc(N3C[C@@H](C)O[C@@H](c4ccn(C5CC5)n4)C3)nc(-c3ccc(F)cc3F)c2nc1C [Example I-1265, (2R,6R)-2-(1-cyclopropylpyrazol-3-yl)-4-[4-(2,4-difluorophenyl)-6,7-dimethyl-pteridin-2-yl]-6-methyl-morpholine]
500 to 3000	Cc1cc2c(-c3ccc(F)cc3F)nc(N3C[C@@H](C)O[C@@H](c4cn(C)cn4)C3)nc2nc1C [Example I-1260, (2R,6R)-4-[4-(2,4-difluorophenyl)-6,7-dimethyl-pyrido[2,3-d]pyrimidin-2-yl]-2-methyl-6-(1-methylimidazol-4-yl)morpholine; formic acid]
